Holding throughout (format): cell-based
Data set [1] deals with T1, human ABCG2 protein (Homo sapiens, UniProt Q9UNQ0).
T1 construct: host or cells: MDCKII (SB MDCKII-BCRP cell line)
T1 sequence (Q9UNQ0 1-655): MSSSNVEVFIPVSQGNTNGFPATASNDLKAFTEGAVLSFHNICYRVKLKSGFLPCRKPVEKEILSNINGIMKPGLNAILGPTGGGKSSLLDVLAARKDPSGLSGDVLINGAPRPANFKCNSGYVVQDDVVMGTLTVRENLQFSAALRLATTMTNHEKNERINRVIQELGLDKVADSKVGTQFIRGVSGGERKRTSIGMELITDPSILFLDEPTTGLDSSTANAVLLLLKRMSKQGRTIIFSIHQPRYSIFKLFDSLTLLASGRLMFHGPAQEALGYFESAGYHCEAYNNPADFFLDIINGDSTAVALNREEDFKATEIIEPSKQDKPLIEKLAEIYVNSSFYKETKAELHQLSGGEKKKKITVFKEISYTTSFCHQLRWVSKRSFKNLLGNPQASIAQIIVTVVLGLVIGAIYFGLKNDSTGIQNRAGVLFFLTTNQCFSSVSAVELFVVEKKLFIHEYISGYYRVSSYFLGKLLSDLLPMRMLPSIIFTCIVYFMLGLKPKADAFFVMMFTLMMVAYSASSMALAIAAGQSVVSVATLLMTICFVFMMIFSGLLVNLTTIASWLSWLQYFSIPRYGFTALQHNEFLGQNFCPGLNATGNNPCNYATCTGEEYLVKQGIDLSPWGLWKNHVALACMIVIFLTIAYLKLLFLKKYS
The experiment in a line: Polyphenol accumulation in SB MDCKII-BCRP cells with/without Ko143, APB conjugate fluorescence (substrate verification). Conditions: 20 µM compound; for transport substrate for the ABCG2 protein: 1 h, 37°C, with/without 10 µM Ko143, significantly higher fluorescence with Ko143; for transport capacity: relative difference between fluorescence values with/without 10 µM Ko143. From the text: The results are shown on Fig. 1. […] The relative difference between the fluorescence values leads to the conclusion that transport capacity is the highest for compounds 9, 3 and 1 and the lowest for compounds 2 and 6.
On Figure 1 fluorescence of the conjugates of APB and polyphenolic compounds is shown for the cell lysates (mean ± the standard error of the mean, n=5; statistically significant differences at the significance level <0.05 are marked with * symbol).

Data set [2] addresses T2, ABCG2 K86M (Homo sapiens, UniProt Q9UNQ0, K86M).
T2 construct: expressed in transfected cells; host or cells: HeLa, transient transfection (FuGene HD), pcDNA6.2/V5 vector
T2 sequence (Q9UNQ0 1-655 K86M): T1 sequence (Q9UNQ0 1-655) with K86M
The experiment in a line: Luteolin transport in transfected HeLa cells with/without Ko143, APB conjugate fluorescence. Conditions: K86M variant in HeLa cells; 10 µM luteolin, 0 or 10 µM Ko143, 1 h. As to the method: (§1) A plasmid expression vector for the ABCG2 protein was prepared using standard molecular biology techniques. The vector was obtained by cloning of a sequence encoding human ABCG2 and (as an N-terminal fusion protein within the same open reading frame) a sequence encoding TagGFP2 fluorescent protein (obtained from the pTagGFP2-C plasmid produced by Evrogen, cat. no. FP191) into the pcDNA6.2/V5 plasmid. Subsequently, a series of expression vectors for sequential variants of the ABCG2 protein were prepared by performing site-directed mutagenesis in the codons coding particular amino acids in this sequence. For this purpose the Quickchange Lightning kit for site-directed mutagenesis manufactered by AgilentStratagene (cat. no. 210513) was used, in full compliance with the manufacturer's instructions. In this way, the vectors encoding the following sequential variants of the ABCG2 protein were obtained (letters denote the standard IUPAC codes for amino acid residues changed with regard to the wild-type sequence, the number denotes the position of the amino acid residue in the polypeptide chain from the N-terminus of the protein): R482G,R482K, K86M.
(§2) 72 hours before the experiment, the cells were chemically transfected with the above mentioned plasmids using the FuGene HD reagent (product from Promega, cat. no. E2311). The transfection mixture contained 150 µl of OptiMEM culture medium (product from Life Technologies, cat. no. 31985070), 3.3 µg of plasmid DNA and 9.9 µl of Fugene HD. The mixture was vortexed, incubated for 5 minutes and added to 2 ml of medium and the cells on the 6-well plate. 24 hours before the experiment, the cells were plated on a standard black 96-well polystyrene microplate with surface modified for cell culture (product from Thermo Scientific Nunc cat. no. 137101) with 50,000 cells per well in standard DMEM culture medium (product from LifeTechnologies cat. no. 32430) supplemented with 10% fetal bovine serum. […] The cells were then incubated for 1 h in a standard incubator for in vitro cell culture in temperature of 37°C. The incubation was followed by removing the medium and the cells were washed twice with portions of 50 µl of buffered saline (PBS, product from Life Technologies cat. no. 10010) in temperature of 4°C. Then the cells were lysed (solubilized) in 100 µl of PBS with the following additives: 0.5% (v/v) Triton X-100 surfactant (product from Sigma Aldrich, cat. no. T8787) and 0.25 mg/ml 2-aminoethyl-diphenylborinate (APB, CAS no. 208-366-5, product from Sigma Aldrich, cat. no. D9754). The compound APB was added to the PBS solution from a stock solution in DMSO with a concentration of 250 mg/ml permanently stored in temperature of -20°C. The cells were lysed by shaking the microplate in room temperature for 5 minutes.

Data set [3] concerns the target T3, ABCG2 R482G (Homo sapiens, UniProt Q9UNQ0, R482G).
T3 construct: expressed in transfected cells; host or cells: HeLa, transient transfection (FuGene HD), pcDNA6.2/V5 vector
T3 sequence (Q9UNQ0 1-655 R482G): T1 sequence (Q9UNQ0 1-655) with R482G
Described as above. Conditions: R482G variant in HeLa cells; 10 µM luteolin, 0 or 10 µM Ko143, 1 h. How it is done:
as §1, §2

Data set [4] concerns the target T4, ABCG2 R482K (Homo sapiens, UniProt Q9UNQ0, R482K).
T4 construct: expressed in transfected cells; host or cells: HeLa, transient transfection (FuGene HD), pcDNA6.2/V5 vector
T4 sequence (Q9UNQ0 1-655 R482K): T1 sequence (Q9UNQ0 1-655) with R482K
Described as above. The following applies: R482K variant in HeLa cells; 10 µM luteolin, 0 or 10 µM Ko143, 1 h. As to the method: as §1, §2

Data set [5] has as its target T5, ABCG2 wild-type (Homo sapiens, UniProt Q9UNQ0).
T5 construct: expressed in transfected cells; host or cells: HeLa, transient transfection (FuGene HD), pcDNA6.2/V5 vector
T5 sequence (Q9UNQ0 1-655): T1 sequence (Q9UNQ0 1-655)
The data set is described as above. The following applies: 10 µM luteolin, 0 or 10 µM Ko143, 1 h. How it is done: as §1, §2

Positions count from the first letter of the chain named.

As for `O=c1c(O)c(-c2ccc(O)c(O)c2)oc2cc(O)cc(O)c12` [Compound 1, quercetin], in data set [1], the “transport substrate for the ABCG2 protein” value (“transport substrate” below) is listed as “ABCG2 protein substrates” and the transport capacity result is “highest”.
`O=c1c(O)c(-c2ccc(O)cc2)oc2cc(O)cc(O)c12` [Compound 2, kaempferol]: in data set [1], the “transport substrate” value was “ABCG2 protein substrates” and the transport capacity result is recorded as “lowest”.
For `O=c1cc(-c2ccc(O)c(O)c2)oc2cc(O)cc(O)c12` [Compound 3, luteolin], the “transport substrate” value in data set [1] is listed as “ABCG2 protein substrates”. Besides, in data set [1], the transport capacity result is reported as “highest”. Further, the “transport activity towards luteolin” value in data set [2] was “did not show any transport activity”; in data set [3] it was “similar, maximum transport activity”; in data set [4], “slightly decreased in relation to the wild-type”; in data set [5], “similar, maximum transport activity”.
As for `O=c1c(O)c(-c2ccc(O)c(O)c2)oc2cc(O)ccc12` [Compound 4, fisetin], in data set [1], the “transport substrate” value is reported as “ABCG2 protein substrates”.
Consider `COc1ccc2oc(-c3ccc(OC)c(OC)c3)c(O)c(=O)c2c1` [Compound 6, 6,3',4'-trimethoxy-3-hydroxyflavone], for which, in data set [1], the “transport substrate” value is “ABCG2 protein substrates” and the transport capacity result is on record as “lowest”.
The like results for `COc1ccc(OC)c(-c2oc3ccccc3c(=O)c2O)c1` [Compound 9, 2',5'-dimethoxy-3-hydroxyflavone] were, in that order, “ABCG2 protein substrates” and “highest”.

Values taken from patent EP3117212B1, “METHOD OF STUDYING ABCG2 PROTEIN ACTIVITY AND USE OF 2-AMINOETHYL DIPHENYLBORINATE” (Uniwersytet Lodzki, priority 2014, dated 2015).
